Measured values: patent US9821070B2 (OPKO Biologics Ltd., priority 2012, dated 2017)

How the values were obtained:
[1] = Obese (ob/ob) mouse model, Study 2 (MOD-6031 chronic pharmacology); type: in vivo, male ob/ob mice; conditions: OXM 6000 nmoles/kg bid sc for 32 days
Experimental: Body weight, food and water intake were recorded daily. […] Body weight, food and water intake were measured daily.
Oral glucose tolerant test (OGTT) studies were performed on days 2 and day 30 (FIGS. 10 and 11, respectively).

[2] = target: GLP-1 receptor (Homo sapiens, UniProt P43220); conditions: cAMP Hunter CHO-K1 GLP1R
Chain of GLP-1 receptor (P43220 24-463): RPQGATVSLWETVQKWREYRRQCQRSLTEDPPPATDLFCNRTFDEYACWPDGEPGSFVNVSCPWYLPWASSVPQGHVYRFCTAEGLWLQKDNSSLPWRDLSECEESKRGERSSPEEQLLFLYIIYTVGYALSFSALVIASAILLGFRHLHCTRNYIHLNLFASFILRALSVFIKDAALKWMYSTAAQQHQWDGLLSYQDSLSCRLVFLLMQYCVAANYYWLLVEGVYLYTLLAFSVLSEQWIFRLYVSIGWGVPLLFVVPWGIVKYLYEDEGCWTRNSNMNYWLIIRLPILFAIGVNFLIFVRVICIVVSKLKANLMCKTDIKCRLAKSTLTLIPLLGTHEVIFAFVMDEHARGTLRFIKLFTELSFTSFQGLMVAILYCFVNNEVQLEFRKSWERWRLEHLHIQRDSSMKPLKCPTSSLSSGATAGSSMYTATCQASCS
Experimental: Cells cAMP concentrations were quantified by HTRF assay (Cisbio 62AM4PEB) and EC50 parameter was analyzed by PRISM software. The cAMP Hunter™ CHO-K1 GLP1R secretes cAMP upon binding of the ligand to the receptor. […] Ligands were diluted in diluent contains IBMX and were added in duplicate to the culture wells for 30 min at 37° C. with 5% CO2. […] The dose dependent curves were established and the binding affinities (EC50) of various ligands were calculated using PRISM software by applying the best fit dose response model (Four parameters).

## Oxyntomodulin [OXM]
[1]
  body weight reduction over the study: 10.3%
[2]
  higher GLP-1 receptor binding activation compared to the heterogeneous PEG30-FMS-OXM: 5.9 fold
